Source: US20070088019A1, “Macroheterocyclic compounds as kinase inhibitors” (priority 2005, published 2007)

What was measured:
PKC isoform α = PKC isoform α (Homo sapiens, UniProt P17252); experiment: Protein Kinase C histone-based assay, PKC alpha; assay type: biochemical; conditions: histone substrate, 30 μM ATP, 10 min at 30° C.
Method: (§1) Protein Kinase C Histone-Based Assay
(§2) Compounds were evaluated for PKC selectivity using histone III as the substrate. The PKC isoforms α, β-II or γ were added to a reaction mixture containing 20 mM HEPES, (pH 7.4), […] CaCl2, 10 mM MgCl2, 1 mM EGTA. 100 μg/mL phosphatidylserine, 20 μg/mL diacylglycerol, 30 μM ATP, 1 μCi (^33P)ATP, and 200 μg/mL […]. The reaction was incubated for 10 min at 30° C. Reactions were terminated by TCA precipitation and spotting on Whatman P81 filters. Filters were washed in 75 mM phosphoric acid and the radioactivity quantified by liquid scintillation counting.

PKC Beta I = PKC Beta I (Homo sapiens, UniProt P05771); experiment: Protein Kinase C histone-based assay, PKC beta I; assay type: biochemical; conditions: histone substrate, 30 μM ATP, 10 min at 30° C.
Chain of PKC Beta I (P05771 whole entry, canonical isoform): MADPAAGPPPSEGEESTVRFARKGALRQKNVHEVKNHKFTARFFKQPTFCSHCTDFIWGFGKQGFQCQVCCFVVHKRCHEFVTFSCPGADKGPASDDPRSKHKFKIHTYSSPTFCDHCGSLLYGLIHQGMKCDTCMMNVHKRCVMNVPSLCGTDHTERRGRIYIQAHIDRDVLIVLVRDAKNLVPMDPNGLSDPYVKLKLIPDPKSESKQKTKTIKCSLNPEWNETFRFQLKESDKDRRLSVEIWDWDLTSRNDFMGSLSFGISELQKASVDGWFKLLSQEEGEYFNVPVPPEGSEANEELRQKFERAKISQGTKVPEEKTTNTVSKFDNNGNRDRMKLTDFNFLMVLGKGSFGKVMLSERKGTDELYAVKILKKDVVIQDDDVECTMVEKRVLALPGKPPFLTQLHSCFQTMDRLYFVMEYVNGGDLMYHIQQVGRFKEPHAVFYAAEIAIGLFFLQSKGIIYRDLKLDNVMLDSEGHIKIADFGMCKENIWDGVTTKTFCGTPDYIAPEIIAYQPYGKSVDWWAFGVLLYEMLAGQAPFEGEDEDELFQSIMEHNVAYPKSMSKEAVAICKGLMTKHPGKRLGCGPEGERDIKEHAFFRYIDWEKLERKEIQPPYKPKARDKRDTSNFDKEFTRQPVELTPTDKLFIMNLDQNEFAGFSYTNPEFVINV

PKC isoform β-II = PKC isoform β-II (Homo sapiens, UniProt P05771); experiment: Protein Kinase C histone-based assay, PKC beta II; assay type: biochemical; conditions: histone substrate, 30 μM ATP, 10 min at 30° C.
Chain of PKC isoform β-II (P05771 1-673 isoform P05771-2): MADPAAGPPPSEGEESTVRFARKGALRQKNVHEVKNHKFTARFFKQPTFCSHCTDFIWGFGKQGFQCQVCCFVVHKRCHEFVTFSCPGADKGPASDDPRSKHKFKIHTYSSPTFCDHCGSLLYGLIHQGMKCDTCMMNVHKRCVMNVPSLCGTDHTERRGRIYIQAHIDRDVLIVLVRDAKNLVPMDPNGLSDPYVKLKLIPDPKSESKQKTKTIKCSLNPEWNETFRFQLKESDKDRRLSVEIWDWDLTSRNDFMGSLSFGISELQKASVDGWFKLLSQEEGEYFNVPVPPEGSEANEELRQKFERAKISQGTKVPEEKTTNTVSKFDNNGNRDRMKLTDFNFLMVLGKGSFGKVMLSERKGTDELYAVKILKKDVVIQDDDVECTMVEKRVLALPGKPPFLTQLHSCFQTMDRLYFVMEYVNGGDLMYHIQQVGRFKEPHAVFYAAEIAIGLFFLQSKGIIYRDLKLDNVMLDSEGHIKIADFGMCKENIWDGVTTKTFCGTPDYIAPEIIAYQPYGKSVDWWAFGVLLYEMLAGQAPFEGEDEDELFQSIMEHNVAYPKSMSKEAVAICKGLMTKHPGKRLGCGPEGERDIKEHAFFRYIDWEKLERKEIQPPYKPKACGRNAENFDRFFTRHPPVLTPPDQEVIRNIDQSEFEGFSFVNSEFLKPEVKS
Method: as §1, §2

PKC isoform γ = PKC isoform γ (Homo sapiens, UniProt P05129); experiment: Protein Kinase C histone-based assay, PKC gamma; assay type: biochemical; conditions: histone substrate, 30 μM ATP, 10 min at 30° C.
Method: as §1, §2

[1] = target: T1, recombinant rabbit GSK-3β protein (Oryctolagus cuniculus, UniProt G1T8E2); experiment: Glycogen Synthase Kinase-3 assay; assay type: biochemical; conditions: PPI-2 substrate, 33P-ATP, 90 minutes at 30° C.
T1 construct: purchased New England Biolabs
T1 sequence (G1T8E2 1-432): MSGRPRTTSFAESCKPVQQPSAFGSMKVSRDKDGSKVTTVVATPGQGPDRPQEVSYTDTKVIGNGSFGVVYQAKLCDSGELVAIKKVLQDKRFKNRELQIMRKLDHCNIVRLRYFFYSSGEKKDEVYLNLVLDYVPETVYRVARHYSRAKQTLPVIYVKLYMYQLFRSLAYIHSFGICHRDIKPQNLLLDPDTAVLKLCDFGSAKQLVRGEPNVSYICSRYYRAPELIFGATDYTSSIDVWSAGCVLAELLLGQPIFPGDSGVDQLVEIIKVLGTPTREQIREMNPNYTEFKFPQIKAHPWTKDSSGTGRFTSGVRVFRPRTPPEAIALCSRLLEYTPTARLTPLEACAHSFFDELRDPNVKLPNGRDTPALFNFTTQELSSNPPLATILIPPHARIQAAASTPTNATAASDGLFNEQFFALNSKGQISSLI
Method: Glycogen Synthase Kinase-3 Assay
Compounds were tested for the ability to inhibit recombinant rabbit GSK-3β protein using the following protocol. The test compound was added to a reaction mixture containing Protein phosphatase inhibitor-2 (PPI-2) (Calbiochem) (45 ng), rabbit GSK-3β protein (New England Biolabs) (0.75 units) and ^33P-ATP (1 μCi) in 50 mM Tris-HCl (pH 8.0), 10 mM MgCl2, 0.1% BSA, 1 mM DTT and 100 μM Sodium Vanadate. The mixture was reacted for 90 minutes at 30° C. to allow phosphorylation of the PPI-2 protein and then the protein in the reaction was precipitated using 10% TCA. The precipitated protein was collected on filter plates (MultiScreen-DV/Millipore), which were subsequently washed. Finally, the radioactivity was quantified using a TopCount Scintillation Counter (Packard). […] Staurosporine or Valproate, known inhibitors of GSK-3β, were used as a positive control for screening.

[2] = tested on: retinal neovascularization; experiment: Murine retinopathy in-vivo model (oxygen-induced retinopathy); parameters: species or system mouse; conditions: 60 mg/kg
Source text: Murine Retinopathy In-Vivo Model
The methods used in this model are known to those skilled in the art and are referenced in the scientific literature, such as Smith, L. E., Wesolowski, E., McLellan, A., Kostyk, S. K., D'Amato, R., Sullivan, R., and D'Amore, P. A. “Oxygen-induced retinopathy in the mouse”. Invest. Ophthalmol. Vis. Sci., 1994, January; 35(1): 101-11.

| Compound | IC50 (PKC isoform α) | IC50 (PKC Beta I) | IC50 (PKC isoform β-II) | IC50 (PKC isoform γ) | IC50 [1] | retinal neovascularization [2] |
| --- | --- | --- | --- | --- | --- | --- |
| O=C1NC(=O)C2=C1c1cn(c3ccccc13)CCNCCSCCNCCn1cc2c2ccccc21 [Compound 1, 10,11,12,13,14,16,17,18,19,20-decahydro-15-thio-2,9,12,18,21-pentaaza-1H-diindolo[1,2,3-m,n:3′,2′,1′-r,s]cyclononadec-14,16,18-trien[16,17-c]-pyrrole-2,5-dione] | 0.16 µM | 0.009 µM | 0.006 µM | 0.36 µM | 0.005 µM |  |
| O=C1NC(=O)C2=C1c1cn(c3ccccc13)CCNCCOCCNCCn1cc2c2ccccc21 [Compound 3, 10,11,12,13,14,16,17,18,19,20-decahydro-15-oxa-2,9,12,18,21-pentaaza-1H-diindolo[1,2,3-m,n:3′,2′,1′-r,s]cyclononadec-14,16,18-trien[16,17-c]-pyrrole-2,5-dione] | 0.33 µM | 0.009 µM | 0.013 µM | 5.84 µM | 0.007 µM | inhibited retinal neovascularization |
| CN1CCOCCN(C)CCn2cc(c3ccccc32)C2=C(C(=O)NC2=O)c2cn(c3ccccc23)CC1 [Compound 2, 12,18-dimethyl-10,11,12,13,14,16,17,18,19,20-decahydro-15-oxa-2,9,12,18,21-pentaaza-1H-diindolo[1,2,3-m,n:3′,2′,1′-r,s]cyclononadec-14,16,18-trien[16,17-c]-pyrrole-2,5-dione] | 0.49 µM | 0.027 µM | 0.041 µM | 1.56 µM | 0.006 µM |  |
| CN1CCOCCNCCn2cc(c3ccccc32)C2=C(C(=O)NC2=O)c2cn(c3ccccc23)CC1 [Compound 4, 18-methyl-10,11,12,13,14,16,17,18,19,20-decahydro-15-oxa-2,9,12,18,21-pentaaza-1H-diindolo[1,2,3-m,n:3′,2′,1′-r,s]cyclononadec-14,16,18-trien[16,17-c]-pyrrole-2,5-dione] | 0.28 µM | 0.006 µM | 0.008 µM | 1.2 µM |  |  |
